Results taken from US20150202212A1, “METHODS FOR IDENTIFYING AGENTS FOR TREATING SMOOTH MUSCLE DISORDERS AND COMPOSITIONS THEREOF” (University of Massachusetts Medical School, priority 2012, published 2015).
Like-named read-outs stand apart in the source and are kept apart here.

Columns and labels:
L-type VDCCs = conditions: chloroquine 1 mM; for inhibition of L-type Ca2+ channel currents: Ba2+ as charge carrier
mouse urethra = assay: Mouse urethral contraction induced by contractile agonists; conditions: pretreatment; Chloro 1 mM; CDCA 100 μM
From the text: […] were pretreated with bitter tastants, and then stimulated with contractile agonists. Contractile agonists alone were used as the control.

Mouse ASM cells = assay: Measurement of Ca2+ sparks / local Ca2+ events in mouse ASM cells
[1] = test system: human airway smooth muscle; assay: Measurement of cell shortening in human ASM cells; format: cell-based; conditions: chloroquine after Mch
Procedure: Human lung tissue was obtained (with informed consent) from patients undergoing surgery (lobectomy) for lung cancer at the Department of Surgery and the Department of Pathology at the Univ. of Massachusetts Memorial Med Ctr (Worcester, Mass.). The tumors were identified as nonsmall cell carcinoma (adenocarcinoma, squamous cell carcinoma). Intrapulmonary airways were dissected out and cleaned free of the connective tissues. These airways were either cut into the rings ([…]) for force measurements the same as for mouse airway tissues, or digested with the same enzymes, dissociation medium and isolation procedure as for single mouse ASM cells.
Myocytes were placed into a recording chamber superfused with the bath solution for patch clamp experiments at room temperature. Cells loaded with Fluo-3 were imaged using a custom-built wide-field digital imaging system and their lengths were determined using custom software to manually trace down the center of the cell.

mouse airway strips = conditions: all at 1 mM; [Ca2+]i clamped; α-toxin permeabilized
[2] = test system: isolated smooth muscle cells from mouse internal anal sphincter; assay: [Ca2+]i in isolated smooth muscle cells from mouse internal anal sphincter; format: cell-based; conditions: CDCA 100 μM; chloroquine 1 mM; denatonium 1 mM
From the text: Fluorescence images using fluo-3 as a calcium indicator were obtained using a custom-built wide-field digital imaging system. The camera was interfaced to a custom made inverted microscope, and the cells were imaged using either a 20× Nikon 1.3 NA for global [Ca^2+] measurement or a 60× Nikon 1.4 NA oil for Ca^2+ spark measurement. The 488 nm line of an Argon Ion laser provided fluorescence excitation, with a shutter to control exposure duration, and emission of the Ca^2+ indicator was monitored at wavelengths >500 nm. The images were acquired at the speed of either 1 Hz for global [Ca^2+] measurement or 50 Hz for Ca^2+ spark measurement. Subsequent image processing and analysis was performed off line using a custom-designed software package, running on a Linux/PC workstation. [Ca^2+]i was represented as ΔF/F0*100 with F calculated by integrating fluo-3 over entire cells for global [Ca^2+], or just the value at the brightest pixel (i.e., epicenter pixel) for Ca^2+ sparks.

Structure (SMILES): CCN(CC)CCCC(C)Nc1ccnc2cc(Cl)ccc12 (centres unmarked) [chloroquine]
- time to full inhibition of L-type Ca2+ channel currents (L-type VDCCs): ≤ 2 min
- inhibition of L-type Ca2+ channel currents (L-type VDCCs): fully inhibited
- inhibition of L-type Ca2+ channel currents (L-type VDCCs; listed as Chloro): blocked
- effect on 60 mM KCl-induced contraction (mouse urethra): blocked
- effect on alpha1-agonist phenylephrine-induced contraction (mouse urethra): inhibited
- Ca2+ spark frequency (Mouse ASM cells; chloroquine 10 μM for 2 mins, 13 cells without global rise, control 2.13±0.24): 1.62±0.21 Hz
- Ca2+ spark amplitude (ΔF/F0 at the brightest location) (Mouse ASM cells; chloroquine 10 μM for 2 mins, n=13, control 20.6±1.69): 18.1±1.3
- local Ca2+ events (Ca2+ puffs or sparks) (Mouse ASM cells; chloroquine 10 μM, cells pretreated with 100 μM ryanodine, 14 cells): no detectable local Ca^2+ events
- cell length, % of the control length [1]: 94±5%
- relaxation of ASM at fixed [Ca2+]i (mouse airway strips): failed to relax
- effect on the increase in [Ca2+]i induced by 60 mM KCl [2]: fully reversed
